# In patent US8058311B2, “Imaging 18F or 11C-labelled alkylthiophenyl guanidines” (Hammersmith Imanet Limited, priority 2005, dated 2011):
# Test: Biodistribution: radioactivity in rat brain tissue after intravenous injection
# Format: in vivo
# Conditions: for signal relative to cerebellum in hippocampus and cortex: IV injection; for radioactivity in blood / radioactivity in cerebellum / radioactivity in entorhinal cortex / radioactivity in hippocampus / radioactivity in hypothalamus / radioactivity in inferior colliculi / radioactivity in occipital cortex / radioactivity in olfactory tubercles / radioactivity in plasma (shown for comparison) / radioactivity in pons with medulla / radioactivity in prefrontal cortex / radioactivity in somatosensory cortex / radioactivity in striata / radioactivity in superior colliculi / radioactivity in thalamus: intravenous injection
# Procedure: N-(2-Chloro-5-(2-[^18F]fluoro-ethylthio))-phenyl-N′-(3-methylthio)-phenyl-N′-methylguanidine was prepared according to Example 4 (synthesis formulation ˜3% ethanol in 0.9% w/v saline solution) with a radiochemical purity of ˜99% and, at time of injection, the specific activity ranged from 4-16 GBq/nmol^−1. Biodistribution and blood data were from 11 adult male Sprague-Dawley rats (body weight range, 269 to 329 g; mean±S.E.=300±18 g). N-(2-Chloro-5-(2-[^18F]fluoro-ethylthio))-phenyl-N′-(3-methylthio)-phenyl-N′-methylguanidine was injected directly into the tail vein of each rat whilst under isoflurane anaesthesia. Each animal was then allowed to recover from anaesthesia. At designated times after injection, rats were sacrificed by cervical dislocation under anaesthesia and brain and body tissues were rapidly sampled.
# The data were acquired using two syntheses. Rats were given an average of 86 MBq (85.3 MBq for first experimental day and 87.3 MBq for the second experimental day), in a volume of 0.20 ml (synthesis formulation ˜3% alcohol), via direct intravenous injection through the tail vein. The mass of co-injected N-(2-Chloro-5-(2-[^18F]fluoro-ethylthio))-phenyl-N′-(3-methylthio)-phenyl-N′-methylguanidine ranged from 0.7-2.9 nmol.kg^−1. Details of the methodology, together with processing and counting of the samples can be found in Hume et al., Nucl. Med. Biol. (1991) 18: 339-351. Data were normalised for injected radioactivity and body weight, giving: ‘uptake units’=(cpm.g^−1 wet weight tissue)·(injected cpm.g^−1 body weight)^−1 Results
# Radioactivity concentration data are additionally collated in Tables 1 (peripheral tissue) and 2 (brain). As metabolite studies were not carried out, the proportion of the total radioactivity reflecting label associated with parent N-(2-Chloro-5-(2-[^18F]fluoro-ethylthio))-phenyl-N′-(3-methylthio)-phenyl-N′-methylguanidine is not known. Note, Blood and plasma samples were collected post-mortem from the heart ventricle.
structure (smiles),measurement,setting,value
CSc1cccc(N(C)C(=N)Nc2cc(SCC[18F])ccc2Cl)c1 [N-(2-Chloro-5-(2-[^18F]fluoro-ethylthio))-phenyl-N′-(3-methylthio)-phenyl-N′-methylguanidine],initial uptake in all brain tissues,2 minutes after IV injection,~4 uptake units
same,activity in all brain tissues,90 minutes after radioligand injection,~0.4 uptake units
same,signal relative to cerebellum in hippocampus and cortex,by 90 minutes,1
same,signal relative to cerebellum in hippocampus and cortex,reached over the first 40 minutes,1.3
same,signal relative to cerebellum in hippocampus and cortex,start of the first 40 minutes,~0.8
same,rat brain uptake of radioactivity,earliest sample time (2 min) after IV injection,high uptake of radioactivity
same,radioactivity in blood,"2 min, n = 1",0.288 uptake units
same,radioactivity in cerebellum,"2 min, n = 1",4.204 uptake units
same,radioactivity in entorhinal cortex,"2 min, n = 1",2.766 uptake units
same,radioactivity in hippocampus,"2 min, n = 1",2.864 uptake units
same,radioactivity in hypothalamus,"2 min, n = 1",3.397 uptake units
same,radioactivity in inferior colliculi,"2 min, n = 1",6.716 uptake units
same,radioactivity in occipital cortex,"2 min, n = 1",4.008 uptake units
same,radioactivity in olfactory tubercles,"2 min, n = 1",2.826 uptake units
same,radioactivity in plasma (shown for comparison),"2 min, n = 1",0.264 uptake units
same,radioactivity in pons with medulla,"2 min, n = 1",3.678 uptake units
same,radioactivity in prefrontal cortex,"2 min, n = 1",3.808 uptake units
same,radioactivity in somatosensory cortex,"2 min, n = 1",3.531 uptake units
same,radioactivity in striata,"2 min, n = 1",2.306 uptake units
same,radioactivity in superior colliculi,"2 min, n = 1",4.977 uptake units
same,radioactivity in thalamus,"2 min, n = 1",4.460 uptake units
same,radioactivity in blood,"5 min, n = 1",0.261 uptake units
same,radioactivity in cerebellum,"5 min, n = 1",2.761 uptake units
same,radioactivity in entorhinal cortex,"5 min, n = 1",2.442 uptake units
same,radioactivity in hippocampus,"5 min, n = 1",2.250 uptake units
same,radioactivity in hypothalamus,"5 min, n = 1",2.443 uptake units
same,radioactivity in inferior colliculi,"5 min, n = 1",3.292 uptake units
same,radioactivity in occipital cortex,"5 min, n = 1",2.883 uptake units
same,radioactivity in olfactory tubercles,"5 min, n = 1",3.062 uptake units
same,radioactivity in plasma (shown for comparison),"5 min, n = 1",0.135 uptake units
same,radioactivity in pons with medulla,"5 min, n = 1",2.877 uptake units
same,radioactivity in prefrontal cortex,"5 min, n = 1",3.099 uptake units
same,radioactivity in somatosensory cortex,"5 min, n = 1",2.772 uptake units
same,radioactivity in striata,"5 min, n = 1",1.817 uptake units
same,radioactivity in superior colliculi,"5 min, n = 1",3.541 uptake units
same,radioactivity in thalamus,"5 min, n = 1",2.566 uptake units
same,radioactivity in blood,"10 min, n = 2",0.146 uptake units
same,radioactivity in cerebellum,"10 min, n = 2",1.451 uptake units
same,radioactivity in entorhinal cortex,"10 min, n = 2",1.404 uptake units
same,radioactivity in hippocampus,"10 min, n = 2",1.396 uptake units
same,radioactivity in hypothalamus,"10 min, n = 2",1.275 uptake units
same,radioactivity in inferior colliculi,"10 min, n = 2",1.539 uptake units
same,radioactivity in occipital cortex,"10 min, n = 2",1.651 uptake units
same,radioactivity in olfactory tubercles,"10 min, n = 2",1.300 uptake units
same,radioactivity in plasma (shown for comparison),"10 min, n = 2",0.102 uptake units
same,radioactivity in pons with medulla,"10 min, n = 2",1.530 uptake units
same,radioactivity in prefrontal cortex,"10 min, n = 2",1.649 uptake units
same,radioactivity in somatosensory cortex,"10 min, n = 2",1.588 uptake units
same,radioactivity in striata,"10 min, n = 2",1.433 uptake units
same,radioactivity in superior colliculi,"10 min, n = 2",1.677 uptake units
same,radioactivity in thalamus,"10 min, n = 2",1.353 uptake units
same,radioactivity in blood,"30 min, n = 3, mean ± SD",0.269 ± 0.042 uptake units
same,radioactivity in cerebellum,"30 min, n = 3, mean ± SD",0.919 ± 0.110 uptake units
same,radioactivity in entorhinal cortex,"30 min, n = 3, mean ± SD",0.941 ± 0.086 uptake units
same,radioactivity in hippocampus,"30 min, n = 3, mean ± SD",1.088 ± 0.142 uptake units
same,radioactivity in hypothalamus,"30 min, n = 3, mean ± SD",1.076 ± 0.250 uptake units
same,radioactivity in inferior colliculi,"30 min, n = 3, mean ± SD",0.841 ± 0.084 uptake units
same,radioactivity in occipital cortex,"30 min, n = 3, mean ± SD",1.041 ± 0.067 uptake units
same,radioactivity in olfactory tubercles,"30 min, n = 3, mean ± SD",0.981 ± 0.235 uptake units
same,radioactivity in plasma (shown for comparison),"30 min, n = 3, mean ± SD",0.229 ± 0.047 uptake units
same,radioactivity in pons with medulla,"30 min, n = 3, mean ± SD",1.110 ± 0.129 uptake units
same,radioactivity in prefrontal cortex,"30 min, n = 3, mean ± SD",1.168 ± 0.042 uptake units
same,radioactivity in somatosensory cortex,"30 min, n = 3, mean ± SD",1.037 ± 0.103 uptake units
same,radioactivity in striata,"30 min, n = 3, mean ± SD",1.101 ± 0.202 uptake units
same,radioactivity in superior colliculi,"30 min, n = 3, mean ± SD",1.086 ± 0.286 uptake units
same,radioactivity in thalamus,"30 min, n = 3, mean ± SD",1.415 ± 0.203 uptake units
same,radioactivity in blood,"60 min, n = 3, mean ± SD",0.229 ± 0.068 uptake units
same,radioactivity in cerebellum,"60 min, n = 3, mean ± SD",0.454 ± 0.082 uptake units
same,radioactivity in entorhinal cortex,"60 min, n = 3, mean ± SD",0.502 ± 0.095 uptake units
same,radioactivity in hippocampus,"60 min, n = 3, mean ± SD",0.548 ± 0.119 uptake units
same,radioactivity in hypothalamus,"60 min, n = 3, mean ± SD",0.533 ± 0.115 uptake units
same,radioactivity in inferior colliculi,"60 min, n = 3, mean ± SD",0.456 ± 0.079 uptake units
same,radioactivity in occipital cortex,"60 min, n = 3, mean ± SD",0.541 ± 0.124 uptake units
same,radioactivity in olfactory tubercles,"60 min, n = 3, mean ± SD",0.504 ± 0.062 uptake units
same,radioactivity in plasma (shown for comparison),"60 min, n = 3, mean ± SD",0.222 ± 0.055 uptake units
same,radioactivity in pons with medulla,"60 min, n = 3, mean ± SD",0.551 ± 0.143 uptake units
same,radioactivity in prefrontal cortex,"60 min, n = 3, mean ± SD",0.519 ± 0.105 uptake units
same,radioactivity in somatosensory cortex,"60 min, n = 3, mean ± SD",0.517 ± 0.107 uptake units
same,radioactivity in striata,"60 min, n = 3, mean ± SD",0.481 ± 0.136 uptake units
same,radioactivity in superior colliculi,"60 min, n = 3, mean ± SD",0.486 ± 0.101 uptake units
same,radioactivity in thalamus,"60 min, n = 3, mean ± SD",0.553 ± 0.108 uptake units
same,radioactivity in blood,"90 min, n = 1",0.180 uptake units
same,radioactivity in cerebellum,"90 min, n = 1",0.366 uptake units
same,radioactivity in entorhinal cortex,"90 min, n = 1",0.383 uptake units
same,radioactivity in hippocampus,"90 min, n = 1",0.391 uptake units
same,radioactivity in hypothalamus,"90 min, n = 1",0.466 uptake units
same,radioactivity in inferior colliculi,"90 min, n = 1",0.306 uptake units
same,radioactivity in occipital cortex,"90 min, n = 1",0.423 uptake units
same,radioactivity in olfactory tubercles,"90 min, n = 1",0.504 uptake units
same,radioactivity in plasma (shown for comparison),"90 min, n = 1",0.163 uptake units
same,radioactivity in pons with medulla,"90 min, n = 1",0.406 uptake units
same,radioactivity in prefrontal cortex,"90 min, n = 1",0.414 uptake units
same,radioactivity in somatosensory cortex,"90 min, n = 1",0.376 uptake units
same,radioactivity in striata,"90 min, n = 1",0.485 uptake units
same,radioactivity in superior colliculi,"90 min, n = 1",0.386 uptake units
same,radioactivity in thalamus,"90 min, n = 1",0.551 uptake units
